Data published in ChEMBL document CHEMBL5126532, “Synthetic approaches and structural diversity of triazolylbutanols derived from voriconazole in the antifungal drug development” (Eur J Med Chem, 2022).
In brackets after ≈: the same amount, converted by molar mass.

Columns and labels:
[1] = system: Candida albicans; assay: Antifungal activity against Candida albicans SANK 51486 by 96-well microplate method; assay type: functional
[2] = system: Cryptococcus neoformans; assay: Antifungal activity against Cryptococcus neoformans TIMM 1855 by 96-well microplate method; assay type: functional
[3] = system: Aspergillus fumigatus; assay: Antifungal activity against Aspergillus fumigatus SANK 10569 by 96-well microplate method; assay type: functional
[4] = system: Aspergillus; assay: Antifungal activity against Aspergillus; assay type: functional
[5] = system: Aspergillus flavus; assay: Antifungal activity against Aspergillus flavus SANK 18497 by 96-well microplate method; assay type: functional
[6] = system: Candida albicans; assay: Antifungal activity against FCZ-resistant Candida albicans 103; assay type: functional
[7] = system: Aspergillus fumigatus; assay: Antifungal activity against Aspergillus fumigatus; assay type: functional
[8] = system: Candida parapsilosis; assay: Antifungal activity against Candida parapsilosis; assay type: functional; settings: Lodderomyces parapsilosis
[9] = system: Nannizzia gypsea; assay: Antifungal activity against Microsporum gypseum; assay type: functional
[10] = system: Candida albicans; assay: Antifungal activity against FCZ-resistant Candida albicans 100; assay type: functional
[11] = system: Candida albicans; assay: Antifungal activity against Candida albicans; assay type: functional
[12] = system: Nannizzia gypsea; assay: Potency index, ratio of MIC80 for FCZ to ratio of MIC80 for test compound against antifungal activity in Microsporum gypseum; assay type: functional
[13] = system: Candida; assay: Antifungal activity against Candida spp.; assay type: functional
[14] = system: Cryptococcus neoformans; assay: Antifungal activity against Cryptococcus neoformans; assay type: functional
[15] = system: Aspergillus sp.; assay: Antifungal activity against Aspergillus sp; assay type: functional
[16] = system: Aspergillus fumigatus; assay: Antifungal activity against Aspergillus fumigatus in 96-well microplate method; assay type: functional
[17] = system: Aspergillus fumigatus; assay: In vivo antifungal activity against Aspergillus fumigatus infected in CDF1 mouse treated po 4 hrs after injection twice daily for 2 days measured on day 10; assay type: functional; settings: 48 h, time 2 day
[18] = system: Cryptococcus neoformans; assay: Antifungal activity against Cryptococcus neoformans TIMM1855 assessed as inhibition of fungal growth incubated for 68 hrs; assay type: functional
[19] = system: Candida albicans; assay: In vivo antifungal activity against Candida albicans infected in CDF1 mouse treated po 4 hrs after injection twice daily for 2 days measured on day 10; assay type: functional; settings: 48 h, time 2 day
[20] = system: Candida albicans; assay: Antifungal activity against Candida albicans TIMM1756 assessed as inhibition of fungal growth incubated for 20 hrs; assay type: functional
[21] = system: Cryptococcus neoformans; assay: Antifungal activity against Cryptococcus neoformans TIMM1740 assessed as inhibition of fungal growth incubated for 68 hrs; assay type: functional
[22] = system: Aspergillus fumigatus; assay: Antifungal activity against Aspergillus fumigatus TIMM1728 assessed as inhibition of fungal growth incubated for 20 hrs; assay type: functional
[23] = system: Aspergillus fumigatus; assay: Antifungal activity against Aspergillus fumigatus IFO6344 assessed as inhibition of fungal growth incubated for 20 hrs; assay type: functional
[24] = system: Candida albicans; assay: Antifungal activity against Candida albicans TIMM1850 assessed as inhibition of fungal growth incubated for 20 hrs; assay type: functional
[25] = Oral bioavailability in monkey relative to control; assay type: ADME, organism-based, Macaca mulatta; settings: rhesus monkey, in vivo
[26] = system: Candida tropicalis; assay: Antifungal activity against Candida tropicalis; assay type: functional
[27] = system: Pichia kudriavzevii; assay: Antifungal activity against Candida krusei; assay type: functional
[28] = system: Nakaseomyces glabratus; assay: Antifungal activity against Candida glabrata; assay type: functional
[29] = Plasma protein binding in human; assay type: ADME, cell-free; settings: route po, read-out: PPB (converted)
[30] = Cryptococcus neoformans, read-out: MIC

With `C[C@@H](S[C@H]1CO[C@H](/C=C/C=C/c2ccc(OCC(F)(F)C(F)F)cc2)OC1)[C@](O)(Cn1cncn1)c1ccc(F)cc1F` as the compound, how does the MIC [1] read?
The MIC was 0.016 µg/mL (≈ 0.0254 µM).

And the MIC [2]?
Its MIC is 0.031 µg/mL (≈ 0.0492 µM).

What about the MIC [3] of the same compound?
The MIC was 0.125 µg/mL (≈ 0.199 µM).

And the MIC [4]?
The MIC was ≤ 0.5 µg/mL.

What about the MIC [5] of the same compound?
Its MIC is 0.125 µg/mL (≈ 0.199 µM).

What does the source list for `C[C@@H](OCc1cc(-c2ccc(F)cc2)no1)[C@](O)(Cn1cncn1)c1ccc(F)cc1F`?
MIC80 [6]: 8 µg/mL (≈ 18 µM); MIC80 [7]: 4 µg/mL (≈ 9 µM); MIC80 [8]: 0.0313 µg/mL (≈ 0.0704 µM); MIC80 [9]: 0.5 µg/mL (≈ 1.13 µM); MIC80 [10]: 8 µg/mL (≈ 18 µM); MIC80 [11]: 0.0313 µg/mL (≈ 0.0704 µM); Ratio [12]: 64

What does the source list for `C[C@@H](N1Cc2nc(-c3ccc(F)cc3)sc2C1=O)[C@](O)(Cn1cncn1)c1ccc(F)cc1F`?
MIC [13]: 0.0156 µg/mL (≈ 0.0321 µM); MIC [14, 30]: 0.0312 µg/mL (≈ 0.0643 µM); MIC ([15]; Aspergillus sp., read-out: MIC): 4 µg/mL (≈ 8.24 µM)

For `C[C@@H](N1CC(O)N(c2ccc(-n3cnnn3)cc2)C1=O)[C@](O)(Cn1cncn1)c1ccc(F)cc1F` (stereo partly specified), which MIC [13] is on record?
The MIC was ≥ 4 µg/mL.

What about the MIC [14, 30] of the same compound?
The MIC was > 16 µg/mL.

What about the MIC ([15]; Aspergillus sp., read-out: MIC) of the same compound?
The MIC was > 64 µg/mL.

Which MIC80 [16] does the source give for `C[C@@H](N1Cc2sc(-c3cncnc3)nc2C1=O)[C@](O)(Cn1cncn1)c1ccc(F)cc1F` here?
The MIC80 was 4 µg/mL (≈ 8.52 µM).

Which MIC [13] does the source give for `C[C@@H](N1CCn2nc(-c3ccc(C#N)nc3)nc2C1)[C@](O)(Cn1cncn1)c1ccc(F)cc1F` here?
Its MIC is 0.0078 µg/mL (≈ 0.0163 µM).

And the MIC [14, 30]?
The MIC was 0.0078 µg/mL (≈ 0.0163 µM).

What about the MIC [4] of the same compound?
The MIC was 1 µg/mL (≈ 2.09 µM).

For `C[C@@H](C[C@H]1CO[C@H](/C=C/C=C/c2ccc(C(F)(F)F)cc2)OC1)[C@](O)(Cn1cncn1)c1ccc(F)cc1F`, which MIC [4] is on record?
Its MIC is ≤ 0.5 µg/mL.

For `C[C@@H](N1CCN(c2ccc(-n3cccn3)cc2)C1=O)[C@](O)(Cn1cncn1)c1ccc(F)cc1F`, which ED50 [17] is on record?
The ED50 was 4.4 mg/kg.

What about the MIC [18] of the same compound?
Its MIC is 0.016 µg/mL (≈ 0.0334 µM).

And the ED50 [19]?
Its ED50 is 2 mg/kg.

And the MIC [20]?
The MIC was ≤ 0.001 µg/mL.

What about the MIC [21] of the same compound?
Its MIC is 0.016 µg/mL (≈ 0.0334 µM).

What about the MIC [22] of the same compound?
The MIC was 0.25 µg/mL (≈ 0.521 µM).

What about the MIC [23] of the same compound?
The MIC was 0.25 µg/mL (≈ 0.521 µM).

And the MIC [24]?
The MIC was ≤ 0.001 µg/mL.

Which bioavailability [25] does the source give for `C[C@@H](c1nc(-c2ccc(C#N)cc2)cs1)[C@](O)(Cn1cncn1)c1cc(F)ccc1F` [ISAVUCONAZOLE] here?
Its bioavailability is 87%.

For `C[C@@H](S[C@H]1CO[C@H](/C=C/C=C/c2ccc(C#N)cc2F)OC1)[C@](O)(Cn1cncn1)c1ccc(F)cc1F` [EMBECONAZOLE], which MIC [1] is on record?
The MIC was ≤ 0.008 µg/mL.

What about the MIC [2] of the same compound?
The MIC was ≤ 0.008 µg/mL.

And the MIC [3]?
Its MIC is ≤ 0.008 µg/mL.

What about the MIC [4] of the same compound?
Its MIC is < 0.5 µg/mL.

And the MIC [5]?
Its MIC is ≤ 0.008 µg/mL.

Which results are given for `C[C@@H](N1C(=O)N(c2ccc(-n3cnnn3)cc2)CC1O)[C@](O)(Cn1cncn1)c1ccc(F)cc1F` (stereo in doubt; 140b)?
MIC [14]: 8 µg/mL (≈ 16.1 µM); MIC [15]: 32 µg/mL (≈ 64.3 µM)

Which MIC [26] does the source give for `C[C@H](n1nnnc1CCN1CCN(c2cccc(C(F)(F)F)c2)CC1)[C@](O)(Cn1cncn1)c1ccc(F)cc1F` here?
The MIC was 0.25 µg/mL (≈ 0.433 µM).

And the MIC [27]?
The MIC was 0.5 µg/mL (≈ 0.866 µM).

What about the MIC [8] of the same compound?
Its MIC is 0.25 µg/mL (≈ 0.433 µM).

What about the MIC [28] of the same compound?
Its MIC is 0.5 µg/mL (≈ 0.866 µM).

And the MIC [11]?
Its MIC is 0.12 µg/mL (≈ 0.208 µM).

With `C[C@@H](N1Cc2sc(-c3ccc(C#N)cn3)nc2C1=O)[C@](O)(Cn1cncn1)c1ccc(F)cc1F` as the compound, how does the MIC80 [16] read?
Its MIC80 is 4 µg/mL (≈ 8.11 µM).

Which fraction unbound [29] does the source give for `C=C1CCN([C@H](C)[C@](O)(Cn2cncn2)c2ccc(F)cc2F)CC1` [EFINACONAZOLE] here?
Its fraction unbound is 0.04.
